According to US20230270721A1, “INHIBITION OF BAX-MEDIATED CELL DEATH BY ELTROMBOPAG” (Albert Einstein College of Medicine, priority 2020, published 2023):

Columns and labels:
[1] = test system: BAK-/- mouse embryonic fibroblasts (MEFs); experiment: Caspase 3/7 assay, STS-induced apoptosis, MEFs expressing only BAX; type: cell-based; details: 3 µM STS, 6 hr
Description: (§1) FIGS. 7A, 7B, 7C, 7D, 7E, and 7F are a set of diagrams showing that eltrombopag inhibits BAX translocation and BAX-mediated apoptosis in cells. […] BAX translocation is based on antibody-based detection of BAX and mitochondrial protein TOMM20. Representative confocal micrographs from three independent biological experiments. Scale bar, 20 µm. […] Data represent ±SEM of three independent biological replicates. Two-sided t test, ****P < 0.0001; ***P < 0.001; **P < 0.01; *P < 0.05; ns, P > 0.05. […] Actin and VDAC are loading controls for cytosolic and mitochondrial fractions, respectively. FIGS. 7D and 7E show a caspase 3/7 assay of BAK-/- mouse embryonic fibroblasts (MEFs) (FIG. 7D) and BAX-/-MEFs (FIG. 7E) in response to 3 µM STS and the presence or absence of various doses of EO for 6 hr. […]
(§2) It is important to note that THPO-receptor agonist activity of EO is highly specific to the human and chimpanzee THPO-receptors, making mouse cell lines ideal for studying EO modulation of BAX-dependent activity independent of THPO-mediated effects (Erickson-Miller, C. L. et al. Stem Cells 27, 424-430 (2009)). First, mitochondrial cytochrome c release, a hallmark of BAX activation and BAX-dependent apoptosis, was evaluated. […] Next, mitochondrial translocation of cytosolic BAX upon treatment with either BIM BH3 or staurosporine (STS) in BAK KO MEFs was evaluated.

[2] = test system: BAX-/-MEFs; experiment: Caspase 3/7 assay, STS-induced apoptosis, MEFs expressing only BAK; type: cell-based, mouse; details: 3 µM STS, 6 hr
Description: as §1, §2

[3] = test system: BAX KO (BAX-/-) MEFs; experiment: Cytochrome c release assay (ELISA), BAX KO MEFs; type: cell-based, mouse; details: BIM-BH3 peptide
Procedure: BAX^-/^- or BAK^-/^- mouse embryonic fibroblasts were maintained in DMEM (Life Technologies) supplemented with 10% FBS, 100 U/mL penicillin/streptomycin, 2 mM I-glutamine, and 0.1 mM MEM nonessential amino acids. MEFs (5×10^4 cells/well) were seeded in a 96 well clear u-bottom plate for 18-24 hr. Media was removed and replaced with media lacking FBS, and cells were treated with varying doses of EO for 2 hours at 37° C. […] Cytochrome c release was determined by decanting 50 µL of the supernatant and analyzing with the rat/mouse cytochrome c quantikine ELISA kit (R&D Systems, MCTO) according to the recommended protocol. […]
as §2

[4] = test system: BAK KO MEFs; experiment: Mitochondrial translocation of cytosolic BAX in cells; type: cell-based, mouse; details: BIM BH3 or 2 µM staurosporine (STS); 10 or 20 µM EO
Description: as §1, §2

[5] = test system: human IPSC cardiomyocytes; experiment: Apoptosis detection (RealTime Glo) in doxorubicin-treated cardiomyocytes; type: cell-based; details: 5 µM Doxorubicin, 10 µM EO
[6] = target: T1, BAX-4C (Homo sapiens, UniProt Q07812, C126S/C62S/S4C); experiment: Microscale thermophoresis (MST) direct binding; details: 50 nM labeled BAX; read-out: dissociation constant KD
T1 construct: Human full-length (1-192) wild-type BAX (Q07812); made in house; host or cells: E. coli BL21 (DE3) CodonPlus (DE3)-RIPL
T1 sequence (Q07812 whole entry S4C/C62S/C126S): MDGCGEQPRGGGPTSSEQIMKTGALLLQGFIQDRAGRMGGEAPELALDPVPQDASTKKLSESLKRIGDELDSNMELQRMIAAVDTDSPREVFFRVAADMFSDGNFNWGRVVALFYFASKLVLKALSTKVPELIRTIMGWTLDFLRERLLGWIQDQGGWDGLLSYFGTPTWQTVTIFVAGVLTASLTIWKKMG
Procedure: Recombinant BAX C62S-C126S-S5C (4C), previously established for evaluating BAX (Garner, T.P., et al. Nat Chem Biol 15, 322-330 (2019)) binding compounds with MST, or BAX C62S-C126S-S5C-R134E-R145E (R134E-R145E-4C) was labeled at cysteine using the Monolith Protein Labeling Kit Red Maleimide (NanoTemper Technologies) according to the instructions of the manufacturer (Garner, T.P., et al. Nat Chem Biol 15, 322-330 (2019)). Briefly, 10 µM protein was incubated with 0.9 equivalents of dye in MST buffer (100 mM potassium phosphate, pH 7.4, 150 mM NaCI) in the dark at room temperature (22-25° C.) for 1 hr. […] Samples were loaded into standard glass capillaries (Monolith NT.155 Capillaries) and analyzed by MST using a Monolith NT.115 Blue/Red, LED power and IR laser power of 80%. Fraction bound and error was generated by NanoTemper software (MO.Affinity Analysis), and KD values were determined using GraphPad Prism nonlinear fit four-parameter agonist versus response with restraints for 0 and 1 fraction bound.
To test this hypothesis, a competitive fluorescence polarization assay (FPA) (Gavathiotis, E., et al. Nat Chem Biol 8, 639-645 (2012)) based on the interaction between BAX and fluorescently-labeled stapled BIM-BH3 peptide (FITC-BIM-SAHB) was used (Gavathiotis, E., et al. Nature 455, 1076-1081 (2008)). […]

CC1=NN(c2ccc(C)c(C)c2)C(=O)/C1=N\Nc1cccc(-c2cccc(C(=O)O)c2)c1O [EO, eltrombopag]
STS-induced apoptosis mediated by caspase 3/7 activity [1]: inhibited STS-induced apoptosis | STS-induced apoptosis mediated by caspase 3/7 activity [2]: no effect | BIM-BH3 induced release of cytochrome c [3]: no such effect | mitochondrial translocation of cytosolic BAX [4]: capable of inhibiting BAX translocation | apoptosis (cell death) induced by doxorubicin [5]: capable of inhibiting apoptosis | Kd [6]: 0.143 µM
